Read-outs that look alike come from different tables or passages of the source.

In experiment [1] the test system is BSM cells. The experiment in a line: Microspectrofluorimetry of intracellular calcium (indo-1) after acetylcholine stimulation. In kind it is cell-based, human. The following applies: asthmatic BSM cells; 10^-5 M acetylcholine; 1 μM D600 with 2 mM Ca2+, or 400 μM EGTA without extracellular calcium. As to the method:
Change in growth-arrested BSM cell intracellular calcium concentration ([Ca^2+]i), was assessed using the Ca^2+-sensitive probe indo-1, as previously described (Berger et al., J. Appl. Physiol. 91:995-1003 (2001); Trian et al., Am. J. Respir. Cell Mol. Biol. 34:49-55 (2006)). In brief, cells were loaded with indo-1 (Calbiochem) and mounted in a perfusion chamber continuously perfused with phosphate salt solution containing either 2 mM Ca2+ in the absence or presence of 1 μM D600, or 400 μM EGTA (Sigma-Aldrich) in the absence of extracellular calcium. BSM cells were stimulated with 10^−5 M acetylcholine or histamine (both from Sigma-Aldrich). Individual cell calcium levels were monitored continuously. Results were expressed as the mean±the SEM of resting or peak of [Ca^2+]i rises (in […]) and area under the curves (nanomoles/second). Experiments were carried out at room temperature (22-25° C.).
Background: Calcium flux is commonly read through the fluorescence of an indicator in the cells.

Experiment [2] has as its system PGC-1α. Put plainly: Western blot of PGC-1α in BSM cells. The class given is cell-based, human. The following applies: asthmatic BSM cells; 1 μM D600 for 48 h. As to the method:
(§1) To analyze the mitochondrial ultrastructure, BSM cells were growth arrested, as described in the previous section, for 6 d. Three million cells were then collected and centrifuged at 400 g for 5 min. Cell pellets were fixed in 2.5% glutaraldehyde for 2 h at 4° C. and processed for electron microscopy, as described in the previous section. Growth curves were built to assess the role of mitochondria in cell proliferation. For this purpose, 25,000 BSM cells were plated on 75-cm^2 flasks and cultured with 10% FCS-DME containing either 4.5 g/liter galactose or 4.5 g/liter glucose. […] For these latter experiments, medium was changed every 24 h, and, at the indicated time, BSM cells were harvested by trypsinization and counted in triplicate using a cytometer.
(§2) Whole lysates from BSM cells were collected using 1% Triton X-100 lysis buffer in the presence of 2 mM Na orthovanadate, 1 mM EDTA, 50 μg/ml aprotinin, 100 μM leupeptin, 1 mM 1.4 Dithio-DL-Treitol, and 1 mM amino-ethyl-benzenesulfonyl fluoride hydrochloride (all from Sigma-Aldrich). […] Blot images were acquired using BioCaptMW (Thermo Fisher Scientific), and band densities were quantified using ImageJ software.
(In general: In western blotting, separated proteins are transferred to a membrane and probed.)

Experiment [3] concerns porin. The experiment in a line: Mitochondrial mass by porin content (Western blot) in BSM cells. In kind it is cell-based, human. As to the method:
(§3) To analyze the mitochondrial ultrastructure, BSM cells were growth arrested, as described in the previous section, for 6 d. Three million cells were then collected and centrifuged at 400 g for 5 min. Cell pellets were fixed in 2.5% glutaraldehyde for 2 h at 4° C. and processed for electron microscopy, as described in the previous section. Growth curves were built to assess the role of mitochondria in cell proliferation. For this purpose, 25,000 BSM cells were plated on 75-cm^2 flasks and cultured with 10% FCS-DME containing either 4.5 g/liter galactose or 4.5 g/liter glucose. In another set of experiments, we investigated the effects of 50 μg/liter ethidium bromide (Qbiogene) for up to 33 d, 1.3 g/liter cyclic cGMP (3 mM; Sigma-Aldrich) for up to 6 d, or […] D600, i.e., methoxyverapamil or gallopamil (1 μM; Sigma-Aldrich) for up to 2 d in 10% FCS-DME containing 4.5 g/liter glucose. For these latter experiments, medium was changed every 24 h, and, at the indicated time, BSM cells were harvested by trypsinization and counted in triplicate using a cytometer.
Whole lysates from BSM cells were collected using 1% Triton X-100 lysis buffer in the presence of 2 mM Na orthovanadate, 1 mM EDTA, 50 μg/ml aprotinin, 100 μM leupeptin, 1 mM 1.4 Dithio-DL-Treitol, and 1 mM amino-ethyl-benzenesulfonyl fluoride hydrochloride (all from Sigma-Aldrich). Cellular extracts were reduced with mercaptoethanol, subjected to electrophoresis on a 10% acrylamide reducing gel, and transferred to PVDF membranes (Immobilon TM-P; Millipore). The immunoblots were then developed using mouse anti-human porin (MitoSciences), mouse anti-human α-actin (Sigma-Aldrich), rabbit anti-human phospho-CaMK-IV, rabbit anti-human PGC-1α, rabbit anti-human NRF-1, or rabbit anti-human mitochondrial transcription factor A (mtTFA; all purchased from Santa Cruz Biotechnology, Inc.) for 14 h at 4° C. For amplification, biotinylated goat secondary antibody anti-mouse IgG (Bio-Rad Laboratories) or anti-rabbit IgG (Santa Cruz Biotechnology, Inc.) for 2 h at room temperature and a streptavidin-biotinylated horseradish peroxidase complex (Dako) were used. […] Blot images were acquired using BioCaptMW (Thermo Fisher Scientific), and band densities were quantified using ImageJ software.

In experiment [4] the test system is NRF-1. Put plainly: Western blot of NRF-1 in BSM cells. In kind it is cell-based, human. As to conditions: asthmatic BSM cells; 1 μM D600 for 48 h. As to the method:
as §1, §2

In experiment [5] the test system is BSM cells. Put plainly: BrdU incorporation (DNA synthesis) in BSM cells. In kind it is cell-based, human. As to conditions: 10% FCS-DME glucose, ethidium bromide or cyclic GMP 24 h. As for the experimental part: Growth-arrested BSM cells were cultured in 96-well plates for 24 h and stimulated with 10% FCS-DME containing glucose, galactose, ethidium bromide, or cyclic GMP for 24 h or containing D600 for 48 h, as described above. Control BSM cells remained in serum-deprived DME. DNA synthesis was measured using the BrdU kit according to the manufacturer's instructions (Roche). In brief, BSM cells were incubated with 10 μM BrdU for 2 h at 37° C. and fixed for 20 min at room temperature. Cells were denaturized for 30 min and incubated with the anti-BrdU antibody for 2 h at room temperature. Absorbance was measured at 370 nm in a microplate reader in triplicate. Results are expressed as a normalized ratio of BrdU incorporation, i.e. absorbance for test condition divided by absorbance for control serum-deprived condition.

Experiment [6] concerns CaMK-IV. Put plainly: Western blot of phosphorylated CaMK-IV in BSM cells. The class given is cell-based, human. The following applies: asthmatic BSM cells; 1 μM D600. As for the experimental part:
as §1, §2

The test system of experiment [7] is mtTFA. The experiment in a line: Western blot of mtTFA in BSM cells. The class given is cell-based, human. The following applies: asthmatic BSM cells; 1 μM D600 for 48 h. As to the method: as §1, §2
The test system of experiment [8] is BSM cells. The experiment in a line: BSM cell growth curves (cell counting), doubling time and proliferation. In kind it is cell-based, human. The following applies: for doubling time of cell growth: glucose medium + 50 μg/liter ethidium bromide or 3 mM cyclic GMP; for proliferation of BSM cells: glucose medium + ethidium bromide or cyclic GMP. As for the experimental part:
as §3

In experiment [9] the test system is endothelial cells. As to conditions: cited from earlier work.
The subject of experiment [10] is vascular smooth muscle cells. As to conditions: mesangial cells and various fibroblasts; cited from earlier work.
For experiment [11], the system named is U937, L6, and PC12. As to conditions: various cell lines, including U937, L6, and PC12; cited from earlier work.

“5-[2-(3,4-dimémethoxyphenyl)ethyl-methylamino]-2-propan-2-yl-2-(3,4,5-triméthoxyphenyl)pentanenitrile hydrochloride [D600]”: in experiment [1], the “abnormal calcium response (area under the curve) to acetylcholine” value is given as “abolished”. In addition, the “activation of mitochondrial biogenesis through PGC-α” value in [2] is reported as “inhibited”. Further, the “mitochondrial content (amount of porin)” value in [3] was “blocks”. For the same compound, the “activation of mitochondrial biogenesis through NRF-1” value in [4] is listed as “inhibited”. Further, the BrdU incorporation result in [5] (asthmatic BSM cells, 1 μM D600 48 h) is “significantly inhibited”. The “activation (phosphorylation) of CaMK-IV” value in [6] is “inhibited”. In addition, the “activation of mitochondrial biogenesis through mtTFA” value in experiment [7] is recorded as “inhibited”.
On to `O=C(O)CN(CCOCCOCCN(CC(=O)O)CC(=O)O)CC(=O)O` [EGTA], for which the “abnormal calcium response (area under the curve) to acetylcholine” value in experiment [1] is reported as “abolished”.
As to `Nc1nc2c(ncn2[C@@H]2O[C@@H]3COP(=O)(O)O[C@H]3[C@H]2O)c(=O)[nH]1` [cyclic GMP], the “doubling time of cell growth” value in experiment [8] (COPD BSM cells) is recorded as “significantly decreased”; in experiment [8] (asthmatic BSM cells), “had no effect”; in experiment [8] (control BSM cells), “decreased”. The results for the “proliferation of BSM cells” value in experiment [8] (COPD BSM cells), in experiment [8] (asthmatic BSM cells) and in experiment [8] (control BSM cells) were “increased”, “had no effect” and “increased”, respectively. For the same compound, the “mitochondrial content (amount of porin)” value is on record as “increased” in experiment [3] (COPD BSM cells, ethidium bromide or cyclic GMP 6 d); “failed to additionally increase” in [3] (asthmatic BSM cells, ethidium bromide or cyclic GMP 6 d, 1 μM D600 48 h); “increased” in [3] (control BSM cells, ethidium bromide or cyclic GMP 6 d). For the same compound, the BrdU incorporation result in experiment [5] (COPD BSM cells) and in [5] (control BSM cells) was “increased” each time. The “proliferation of endothelial cells” value in experiment [9] was “increased”. In [10], the proliferation entry is reported as “inhibit”. For the same compound, the “PGC-1α and mitochondrial biogenesis” value in experiment [11] is on record as “activate”.
